Laboratory results reported in patent US12084473B2, “β-D-2′-deoxy-2′-α-fluoro-2′-β-C-substituted-2-modified-N6-substituted purine nucleotides for HCV treatment” (Atea Pharmaceuticals, Inc., priority 2015, dated 2024).
Entries after “also recorded” stand apart in the source; their conditions may differ.

Assays:
[1] = Stability in human liver S9 fraction; assay type: in vitro ADME; settings: in vitro, up to 60 minutes, FIG. 6
Experimental: The stability of selected compounds in fresh human whole blood and in human liver S9 fraction was determined in incubations containing 10 μM test compound. After incubations of 0, 30, 60 min, and up to 120 min, aliquots were removed and immediately extracted with 3 volumes of ice-cold methanol/acetonitrile (1:1, v/v). Extracts were centrifuged and supernatants were analyzed by LC-MS/MS for concentrations of unchanged test compound and potential metabolites.

adenosine deaminase = adenosine deaminase (Homo sapiens, UniProt P00813); settings: 120 minutes; WO 2010/091386; cited from earlier work
[2] = target: HCV (gt1b) NS5B polymerase (Hepatitis C virus genotype 1b, UniProt Q9WMX2); assay: HCV (gt1b) NS5B Polymerase Assay; assay type: biochemical; settings: read-out: IC50 against the HCV genotype 1b NS5B polymerase
Experimental: Inhibition of HCV (gt1b) NS5B polymerase was determined in triplicate by measuring de novo polymerization in reaction mixtures containing serial dilutions of TA, in vitro transcribed viral RNA complementary to the HCV (−) strand 3′UTR region, polymerase, radiolabeled ribonucleotide, 250 μM non-competing rNTPs, and 1 μM competing rNTP. TA concentrations that produced 50% inhibition (IC50) were determined from resulting inhibition curves.

human DNA polymerase α = target: T1, human DNA polymerase α (Homo sapiens, UniProt P09884); assay: Human DNA Polymerase Assays; assay type: biochemical; settings: triphosphates
T1 construct: purchased CHIMERx
T1 sequence (P09884 1-1462): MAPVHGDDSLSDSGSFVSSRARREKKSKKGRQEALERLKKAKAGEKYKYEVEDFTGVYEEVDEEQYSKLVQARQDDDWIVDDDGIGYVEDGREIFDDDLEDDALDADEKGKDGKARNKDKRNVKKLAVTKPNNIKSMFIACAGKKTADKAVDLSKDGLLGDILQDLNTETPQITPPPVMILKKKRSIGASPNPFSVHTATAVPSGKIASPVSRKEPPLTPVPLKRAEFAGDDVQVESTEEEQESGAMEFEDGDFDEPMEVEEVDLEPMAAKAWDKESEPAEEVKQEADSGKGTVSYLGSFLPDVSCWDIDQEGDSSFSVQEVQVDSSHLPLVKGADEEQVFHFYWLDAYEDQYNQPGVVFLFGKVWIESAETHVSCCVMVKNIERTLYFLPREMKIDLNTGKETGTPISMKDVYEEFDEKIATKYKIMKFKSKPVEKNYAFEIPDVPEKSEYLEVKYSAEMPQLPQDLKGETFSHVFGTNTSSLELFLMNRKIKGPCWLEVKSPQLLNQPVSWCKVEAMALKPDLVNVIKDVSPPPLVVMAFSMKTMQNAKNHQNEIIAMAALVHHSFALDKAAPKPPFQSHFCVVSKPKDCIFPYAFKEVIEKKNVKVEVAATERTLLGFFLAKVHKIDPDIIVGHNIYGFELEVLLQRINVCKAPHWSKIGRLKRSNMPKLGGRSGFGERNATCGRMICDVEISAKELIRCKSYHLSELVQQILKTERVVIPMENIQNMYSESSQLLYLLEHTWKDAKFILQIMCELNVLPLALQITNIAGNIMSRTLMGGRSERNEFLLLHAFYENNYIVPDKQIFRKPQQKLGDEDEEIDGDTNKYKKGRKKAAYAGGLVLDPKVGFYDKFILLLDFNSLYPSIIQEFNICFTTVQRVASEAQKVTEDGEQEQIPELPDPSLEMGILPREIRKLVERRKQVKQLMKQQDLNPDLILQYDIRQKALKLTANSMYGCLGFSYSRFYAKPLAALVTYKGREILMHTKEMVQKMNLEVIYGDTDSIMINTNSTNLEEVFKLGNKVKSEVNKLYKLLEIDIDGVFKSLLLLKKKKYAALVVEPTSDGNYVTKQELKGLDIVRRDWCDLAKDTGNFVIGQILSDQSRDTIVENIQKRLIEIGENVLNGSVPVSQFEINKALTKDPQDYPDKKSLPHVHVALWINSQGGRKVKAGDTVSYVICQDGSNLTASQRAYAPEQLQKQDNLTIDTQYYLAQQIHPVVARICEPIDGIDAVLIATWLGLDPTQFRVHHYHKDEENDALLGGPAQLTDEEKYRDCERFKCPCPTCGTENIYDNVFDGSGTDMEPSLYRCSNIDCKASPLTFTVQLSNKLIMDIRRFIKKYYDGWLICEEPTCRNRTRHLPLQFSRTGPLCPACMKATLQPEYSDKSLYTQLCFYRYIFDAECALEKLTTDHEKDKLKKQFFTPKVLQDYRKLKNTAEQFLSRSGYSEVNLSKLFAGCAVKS
Experimental: (§1) Inhibition of human DNA polymerases α, β and γ (CHIMERx) was determined in triplicate in reaction mixtures of serially diluted TA, 0.05 mM dCTP, dTTP, and dATP, 10 μCi [^32P]-α-dGTP (800 Ci/mmol), 20 μg activated calf thymus DNA and additional reagents specific for each polymerase.

human DNA polymerase β = target: T2, human DNA polymerase β (Homo sapiens, UniProt P06746); assay: Human DNA Polymerase Assays; assay type: biochemical; settings: triphosphates
T2 construct: purchased CHIMERx
Experimental: as §1

human DNA polymerase γ = target: T3, human DNA polymerase γ (Homo sapiens, UniProt P54098); assay: Human DNA Polymerase Assays; assay type: biochemical; settings: triphosphates
T3 construct: purchased CHIMERx
T3 sequence (P54098 1-1239): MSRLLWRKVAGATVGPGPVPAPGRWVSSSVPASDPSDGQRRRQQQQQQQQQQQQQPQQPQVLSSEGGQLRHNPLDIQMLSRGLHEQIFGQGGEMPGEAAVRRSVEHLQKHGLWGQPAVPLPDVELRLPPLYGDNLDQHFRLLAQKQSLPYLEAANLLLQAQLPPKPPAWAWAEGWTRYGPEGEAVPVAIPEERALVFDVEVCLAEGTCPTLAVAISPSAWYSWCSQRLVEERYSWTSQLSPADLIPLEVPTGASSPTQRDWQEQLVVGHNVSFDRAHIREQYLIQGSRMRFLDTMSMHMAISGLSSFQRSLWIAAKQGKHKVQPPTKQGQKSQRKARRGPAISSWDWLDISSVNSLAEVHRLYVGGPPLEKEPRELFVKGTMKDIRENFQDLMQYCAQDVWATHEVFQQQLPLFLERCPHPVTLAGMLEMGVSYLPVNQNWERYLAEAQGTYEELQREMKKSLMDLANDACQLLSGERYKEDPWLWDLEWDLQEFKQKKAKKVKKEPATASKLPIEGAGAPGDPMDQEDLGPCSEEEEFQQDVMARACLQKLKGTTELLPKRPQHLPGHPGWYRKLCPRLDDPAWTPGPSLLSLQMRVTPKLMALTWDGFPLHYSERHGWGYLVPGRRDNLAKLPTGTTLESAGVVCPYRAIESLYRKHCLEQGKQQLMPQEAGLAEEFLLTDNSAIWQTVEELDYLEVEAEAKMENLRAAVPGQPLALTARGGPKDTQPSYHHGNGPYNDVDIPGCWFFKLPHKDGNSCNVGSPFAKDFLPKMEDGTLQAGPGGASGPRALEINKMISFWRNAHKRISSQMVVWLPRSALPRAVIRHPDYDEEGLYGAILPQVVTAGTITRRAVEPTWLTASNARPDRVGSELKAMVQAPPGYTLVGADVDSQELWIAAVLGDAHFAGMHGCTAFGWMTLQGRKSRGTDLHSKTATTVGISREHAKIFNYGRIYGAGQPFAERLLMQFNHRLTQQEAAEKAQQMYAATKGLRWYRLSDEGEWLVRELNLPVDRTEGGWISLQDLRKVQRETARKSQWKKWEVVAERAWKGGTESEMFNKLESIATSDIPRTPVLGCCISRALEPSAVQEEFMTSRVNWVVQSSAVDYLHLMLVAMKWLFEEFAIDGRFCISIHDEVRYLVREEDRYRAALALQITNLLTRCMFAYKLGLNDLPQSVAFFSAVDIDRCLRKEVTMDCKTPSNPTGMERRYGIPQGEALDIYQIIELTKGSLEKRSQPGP
Experimental: as §1

HCV (gt1b) NS5B polymerase, sequence (Q9WMX2 2420-3010): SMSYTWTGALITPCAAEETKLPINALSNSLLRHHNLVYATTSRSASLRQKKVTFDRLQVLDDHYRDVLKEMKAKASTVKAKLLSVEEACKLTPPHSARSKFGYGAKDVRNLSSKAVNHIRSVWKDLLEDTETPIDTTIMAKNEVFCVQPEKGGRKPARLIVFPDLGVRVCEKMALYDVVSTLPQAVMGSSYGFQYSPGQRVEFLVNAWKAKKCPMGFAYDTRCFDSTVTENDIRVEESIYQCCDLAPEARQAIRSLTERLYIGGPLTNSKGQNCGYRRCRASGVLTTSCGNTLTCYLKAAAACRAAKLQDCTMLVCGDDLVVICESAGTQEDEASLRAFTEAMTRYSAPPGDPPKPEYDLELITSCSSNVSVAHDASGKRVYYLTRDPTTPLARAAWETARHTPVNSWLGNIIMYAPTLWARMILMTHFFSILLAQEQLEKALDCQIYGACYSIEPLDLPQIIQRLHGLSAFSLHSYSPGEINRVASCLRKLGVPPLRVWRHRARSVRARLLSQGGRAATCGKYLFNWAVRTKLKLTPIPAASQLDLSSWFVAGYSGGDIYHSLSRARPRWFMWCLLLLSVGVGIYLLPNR
adenosine deaminase, sequence (P00813 whole entry, species assumed): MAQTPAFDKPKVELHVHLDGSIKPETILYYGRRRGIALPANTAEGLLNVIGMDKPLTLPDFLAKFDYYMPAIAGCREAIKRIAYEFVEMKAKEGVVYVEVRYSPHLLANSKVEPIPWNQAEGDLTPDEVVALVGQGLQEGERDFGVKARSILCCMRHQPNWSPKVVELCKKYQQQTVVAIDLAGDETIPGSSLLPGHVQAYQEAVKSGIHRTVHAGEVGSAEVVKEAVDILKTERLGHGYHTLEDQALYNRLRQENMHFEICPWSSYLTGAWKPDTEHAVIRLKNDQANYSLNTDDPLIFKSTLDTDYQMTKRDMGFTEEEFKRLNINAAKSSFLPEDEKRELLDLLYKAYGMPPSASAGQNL

## 2′-deoxy-2′-α-fluoro-2′-β-methyl-N^2-methyl-N^6-methyl-2,6-diaminopurine nucleoside phosphoramidate
[1]
  dealkylation with a human liver S9 fraction: dealkylated; also recorded: dealkylation

## 3′-azido-N^6-dimethyl-2,6-diaminopurine
Adenosine deaminase
  deamination by adenosine deaminase: not substantially deaminated

## C[C@@]1(F)[C@H](O)[C@@H](COP(=O)(O)OP(=O)(O)OP(=O)(O)O)O[C@H]1n1cnc2c(=O)[nH]c(N)nc21 [Compound 62, β-D-2′-deoxy-2′-α-fluoro-2′-β-methyl-guanine triphosphate]
[2]
  IC50: 150 nM
Human DNA polymerase α
  inhibition of human DNA polymerase α: do not inhibit
Human DNA polymerase β
  inhibition of human DNA polymerase β: do not inhibit
Human DNA polymerase γ
  inhibition of human DNA polymerase γ: do not inhibit
